Values quoted from earlier work in patent US9150566B2, “2-(1,2,3-triazol-2-yl)benzamide and 3-(1,2,3-triazol-2-YL)picolinamide derivatives as orexin receptor antagonists” (ACTELION PHARMACEUTICALS LTD., priority 2011, dated 2015).

Columns and labels:
[1] = test system: amyloid precursor protein transgenic mice; details: after acute sleep restriction, APP transgenic mice; cited from earlier work
humans = details: cited from earlier work
rats [2] = details: rats treated with the compound; cited from earlier work
rat [3] = details: rat fear-potentiated startle paradigm; cited from earlier work
fasted hungry rats = fasted hungry rats exposed to food odors; cited from earlier work
rats [4] = details: cited from earlier work
rat [5] = details: cited from earlier work
mouse = mouse model of depression, administered chronically; cited from earlier work
rat [6] = details: rat model; cited from earlier work

In the case of `CNC(=O)[C@@H](c1ccccc1)N1CCc2cc(OC)c(OC)cc2[C@@H]1CCc1ccc(C(F)(F)F)cc1` [(2R)-2-{(1S)-6,7-dimethoxy-1-[2-(4-trifluoromethyl-phenyl)-ethyl]-3,4-dihydro-1H-isoquinolin-2-yl}-N-methyl-2-phenyl-acetamide], the “brain levels of amyloid-beta and plaque deposition” value [1] is listed as “decreased brain levels of amyloid-beta (Aβ) as well as AO plaque deposition”, the “clinical efficacy, primary insomnia” value (humans) is listed as “showed clinical efficacy” and the learning and memory (rats [2]) is listed as “intact declarative and non-declarative learning and memory”. For the same molecule, the “activity in animal model of conditioned fear” value (rat [3]) was “active”, the “natural activation induced by orexin A” value (fasted hungry rats) was “attenuate the natural activation induced by orexin A” and the “cardiovascular responses to conditioned fear and novelty exposure” value (rats [4]) was “attenuated cardiovascular responses to conditioned fear and novelty exposure”. For the same molecule, the “alertness (active wake and locomotion)” value (rat [5]) was “decrease alertness”, the “time spent in REM and NREM sleep” value (rat [5]) was “dose-dependently increase the time spent in both REM and NREM sleep” and the antidepressant-like activity (mouse) was “induce antidepressant-like activity”. For the same molecule, the “pharmacological activity, nicotine self-administration” value (rat [6]) was “displayed pharmacological activity”.
